Reference: patent US9745384B2, “Peptides useful for modulating histone demethylase function” (The Brigham and Women's Hospital, Inc., priority 2012, dated 2017)
Ends that are not written are not given here.

Key:
LSD2 (residues 51-822) = target: T1, LSD2 (residues 51-822) (Homo sapiens, UniProt Q8NB78); assay: ITC binding of wild-type and mutant NPAC peptides (residues 214-225) with LSD2; conditions: 15 °C; 3 mM NPAC peptide injected into 0.2 mM LSD2
T1 construct: Human LSD2 (residues 51-822) was subcloned into a pFastBacl derivative; His6 (cleaved yes); made in house; host or cells: Sf9 insect cells (baculovirus)
T1 sequence (Q8NB78 51-822): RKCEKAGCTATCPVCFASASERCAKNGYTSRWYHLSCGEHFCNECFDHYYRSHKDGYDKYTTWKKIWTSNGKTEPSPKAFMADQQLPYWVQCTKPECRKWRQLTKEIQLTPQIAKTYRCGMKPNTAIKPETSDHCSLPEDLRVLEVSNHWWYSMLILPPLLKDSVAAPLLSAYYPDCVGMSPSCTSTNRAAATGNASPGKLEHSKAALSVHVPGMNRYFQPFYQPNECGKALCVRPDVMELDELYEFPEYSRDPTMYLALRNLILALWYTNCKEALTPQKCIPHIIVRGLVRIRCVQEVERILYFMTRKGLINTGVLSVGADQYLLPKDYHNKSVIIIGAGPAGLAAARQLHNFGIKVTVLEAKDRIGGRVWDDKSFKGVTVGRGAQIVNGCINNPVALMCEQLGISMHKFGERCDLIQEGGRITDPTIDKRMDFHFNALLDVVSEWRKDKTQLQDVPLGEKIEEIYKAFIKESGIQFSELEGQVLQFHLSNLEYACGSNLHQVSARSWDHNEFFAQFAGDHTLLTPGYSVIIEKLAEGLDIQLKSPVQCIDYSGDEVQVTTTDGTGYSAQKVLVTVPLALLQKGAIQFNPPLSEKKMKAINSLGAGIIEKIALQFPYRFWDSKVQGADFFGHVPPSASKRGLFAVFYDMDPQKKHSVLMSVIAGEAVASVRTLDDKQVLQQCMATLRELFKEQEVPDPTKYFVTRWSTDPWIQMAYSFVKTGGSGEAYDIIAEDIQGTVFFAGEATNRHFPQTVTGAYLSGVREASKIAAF
Protocol: (§1) All proteins and peptides were prepared in 10 mM HEPES, pH 8.0, and 0.1 M NaCl. The data were fitted by software Origin 7.0.

NPAC214-225.WT = target: T2, NPAC214-225.WT (Homo sapiens, UniProt Q49A26); assay: ITC binding between H3K4M peptide and wild-type NPAC peptide alone; conditions: FIG. 6H
T2 construct: wild-type or mutant NPAC peptides (residues 214-225); made in house; host or cells: chemical synthesis

His-LSD2 = target: T3, His-LSD2 (Homo sapiens, UniProt Q8NB78); assay: Nucleosome demethylation assay (NPAC cofactor activity for LSD2, immunoblot); type: biochemical; conditions: threshold dosage of His-LSD2; nucleosomes purified from HeLa
T3 construct: typically 0.5 μg full-length His-LSD2; made in house; host or cells: Sf9 insect cells
T3 sequence (Q8NB78 1-822): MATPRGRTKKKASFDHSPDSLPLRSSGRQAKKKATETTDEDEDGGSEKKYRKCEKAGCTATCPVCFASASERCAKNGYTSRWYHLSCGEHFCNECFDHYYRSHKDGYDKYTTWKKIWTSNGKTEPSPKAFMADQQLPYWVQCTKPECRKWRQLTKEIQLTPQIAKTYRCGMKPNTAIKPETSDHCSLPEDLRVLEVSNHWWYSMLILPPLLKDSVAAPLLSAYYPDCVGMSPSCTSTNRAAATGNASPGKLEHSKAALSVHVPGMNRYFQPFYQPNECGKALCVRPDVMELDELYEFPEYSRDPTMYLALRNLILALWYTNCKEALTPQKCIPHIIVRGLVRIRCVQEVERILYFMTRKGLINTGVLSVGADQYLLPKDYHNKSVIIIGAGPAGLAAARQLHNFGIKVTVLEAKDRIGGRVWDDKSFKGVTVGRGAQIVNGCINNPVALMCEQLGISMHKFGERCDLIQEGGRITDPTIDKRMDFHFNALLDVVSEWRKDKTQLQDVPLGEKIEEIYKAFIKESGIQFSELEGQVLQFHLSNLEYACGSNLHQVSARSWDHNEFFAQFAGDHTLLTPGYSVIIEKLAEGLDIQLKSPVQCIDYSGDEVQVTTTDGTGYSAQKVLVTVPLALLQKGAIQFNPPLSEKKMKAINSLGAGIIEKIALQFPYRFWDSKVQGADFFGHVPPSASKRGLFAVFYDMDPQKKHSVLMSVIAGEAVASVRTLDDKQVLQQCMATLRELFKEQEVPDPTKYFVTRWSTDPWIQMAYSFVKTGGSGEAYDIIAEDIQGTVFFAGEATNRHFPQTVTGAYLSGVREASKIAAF
Protocol: For nucleosome demethylation assays, typically 0.5 μg full-length His-LSD2, 1 μg NPAC protein or peptides, and 2 μg nucleosomes purified from HeLa were used, and demethylation efficiency was analyzed by SDS-PAGE electrophoresis and immunoblot using methylation specific anti-histone H3 antibodies as previously described (Shi et al. 2004).

LSD2 = target: T4, LSD2 (Homo sapiens, UniProt Q8NB78); assay: H3K4me2 peptide demethylation assay (MALDI-TOF); type: biochemical; conditions: H3K4me2 peptide residues 1-21
T4 construct: 0.15 μM or 1.2 μM purified LSD2 (residues 51-822); His6 (cleaved yes); made in house; host or cells: Sf9 insect cells (baculovirus)
T4 sequence (Q8NB78 51-822): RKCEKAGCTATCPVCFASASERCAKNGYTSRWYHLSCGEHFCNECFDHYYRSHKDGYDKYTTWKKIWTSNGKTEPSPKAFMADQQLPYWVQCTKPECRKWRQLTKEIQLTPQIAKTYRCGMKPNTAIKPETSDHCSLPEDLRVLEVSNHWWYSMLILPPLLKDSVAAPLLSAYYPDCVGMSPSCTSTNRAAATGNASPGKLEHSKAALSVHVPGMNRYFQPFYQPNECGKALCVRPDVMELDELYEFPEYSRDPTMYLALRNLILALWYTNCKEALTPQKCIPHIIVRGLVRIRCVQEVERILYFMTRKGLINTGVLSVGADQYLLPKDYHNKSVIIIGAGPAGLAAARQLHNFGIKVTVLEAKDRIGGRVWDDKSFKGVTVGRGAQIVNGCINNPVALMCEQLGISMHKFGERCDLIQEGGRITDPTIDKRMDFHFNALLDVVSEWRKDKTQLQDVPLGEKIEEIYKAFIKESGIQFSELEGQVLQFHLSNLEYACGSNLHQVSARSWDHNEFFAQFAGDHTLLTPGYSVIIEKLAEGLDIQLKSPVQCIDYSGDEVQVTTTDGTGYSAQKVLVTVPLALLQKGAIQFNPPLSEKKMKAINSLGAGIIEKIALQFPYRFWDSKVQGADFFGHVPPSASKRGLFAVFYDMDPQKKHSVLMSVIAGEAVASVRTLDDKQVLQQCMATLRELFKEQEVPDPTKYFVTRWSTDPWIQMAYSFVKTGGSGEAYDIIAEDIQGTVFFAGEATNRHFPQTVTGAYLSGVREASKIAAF
Protocol: FIGS. 12A-12F depict analysis of LSD2 demethylation activity and mutational analysis. […] Demethylation products were analyzed by MALDI-TOF mass spectrometry. 0.15 μM LSD2 can efficiently demethylate the longer H3K4me2 peptide (1-21), but has no detectable activity on the shorter histone peptide (1-15), demethylation of which requires high concentration (1.2 μM) of LSD2. […] It indicates the importance of histone residue 16-21 to LSD2 enzymatic activity and NPAC cofactor activity, supporting our model that NPAC assists enzyme-substrate interactions by creating a new binding site for H3 L20 in the LSD2-NPAC complex. FIG. 12C depicts LSD2 demethylation and NPAC cofactor activity on longer H3K4me2 peptide (1-44). 2 μg H3K4me2 peptide (1-44) were incubated with 0.8 μg GST-LSD2 (1-822) and 2 μg wild-type or F217A full-length GST-NPAC proteins in 100 μl demethylation buffer (50 mM Tris-HCl pH 8.1, 1 mM NAD^+, 0.1 Unit formaldehyde dehydrogenase) at 30° C. for 2 hours. LSD2 alone can efficiently demethylate di-methyl H3K4 of the long peptides, converting large majority of the substrate to H3K4me1. Wild-type NPAC protein can efficiently stimulate LSD2 demethylation, producing unmethylated H3K4. F217A mutation impairs NPAC cofactor activity as expected, showing little stimulatory effect if any. To compare demethylation efficiency, 1.2 μg bio-H3K4me2 peptide (H3 residue 1-21, equal molar ratio to 2 ug H3K4me2 1-44 peptide in above assays) was demethylated by LSD2 under identical conditions (bottom panel). […] The cofactor activity of wild-type NPAC was readily detected under the same conditions. […] Importantly, the demethylation of nucleosomal H3K4me2 was much more efficient in the presence of wild-type NPAC under same conditions (comparing lane 3 verse 4, and 8 verse 9). It is noted that no obvious cofactor effect of F217A peptide or linker regions was detected in nucleosome and peptide demethylation assays (FIG. 6E and data not shown). FIG. 12F depicts Coomassie staining of NPAC proteins used in histone demethylase assays. FIG. 12F discloses “His6” as SEQ ID NO: 75.
Histone peptides are purchased from Millipore, or custom synthesized. The purity of all peptides are >95% as determined by HPLC and mass spectrometry. In vitro histone demethylase activity assays were performed as described (Shi et al., 2004). Briefly, purified LSD2 and NPAC derived peptides or proteins were incubated with 50 μM H3K4me2 peptides (residues 1-21) in 50 mM Tris-HCl, pH 8.5, 50 mM KCl, 5 mM MgCl2, 5% glycerol at 37° C. for 30 min. The products were desalted through a C18 Ziptip (Millipore) and analyzed on a MALDI-TOF micro MX mass spectrometer (ABI 4700, Applied Biosystems). The laser intensity was kept constant for all of the samples. All MS data were processed using Data Explorer 4.5 (Applied Biosystems). […]

[1] = target: T5, LSD2 and NPAC.214-225.F217A (Homo sapiens, UniProt Q8NB78); assay: ITC binding of H3K4M peptide with LSD2 in complex with F217A NPAC peptide; conditions: FIG. 6H
T5 construct: containing 0.029 mM LSD2 (residues 51-822) or LSD2-NPAC complex; His6 (cleaved yes); made in house; host or cells: LSD2: Sf9 insect cells; NPAC peptide: chemical synthesis
Protocol: as §1

| Sequence | Binding ratio (LSD2 (residues 51-822)) | Kd (LSD2 (residues 51-822)) [nM] | Δ H (LSD2 (residues 51-822)) [cal/mol] | Δ S (LSD2 (residues 51-822)) [cal/mol/deg] | Affinity of NPAC peptide to H3K4M peptide (NPAC214-225.WT) | Cofactor activity: stimulation of LSD2 demethylation of nucleosomal H3K4me2 (His-LSD2) | Cofactor activity: stimulation of LSD2 demethylation of H3K4me2 peptide (LSD2) | Ability of NPAC peptide to stabilize the LSD2-H3K4M peptide interaction [1] |
| --- | --- | --- | --- | --- | --- | --- | --- | --- |
| DPHFHHFLLSQT [NPAC.214-225.WT] | 1.06 ± 0.01 | 920 ± 80 | -8482 ± 121 | −1.82 | no appreciable affinity to H3K4M peptide | sufficient to enhance LSD2 activity in nucleosome demethylation assays | can stimulate LSD2-mediated demethylation of H3K4me2 peptides |  |
| DPHAHHFLLSQT [NPAC.214-225.M6] | 1.10 ± 0.01 | 930 ± 70 | -8182 ± 97 | −0.783 |  | abolishes cofactor activity | but not the F217A mutant, can stimulate LSD2-mediated demethylation of H3K4me2 peptides | significantly diminishes the ability of NPAC to stabilize the interaction between LSD2 and the H3K4M peptide |
